Here are results for 5 molecules from patent US8288439B2, “Methods and compositions for the inhibition of HIV-1 replication” (The United States of America, as represented by the …, priority 2003, dated 2012).

In one data set the test system is p21. Kind of data set: Induction of p21 gene and protein expression in macrophages treated with Vpr. Format: cell-based, human. The note with it: Vpr 6 μg/ml for 3 hr. The protocol:
Macrophages were treated with Vpr (6 μg/ml) for 3 hr and found to show increased gene transcription and protein expression for p21 when treated with Vpr (FIG. 7A and FIG. 7B).

In data set [1] the test system is HIV-1. Kind of data set: Transmission electron microscopy (ultrastructural analysis) of HIV-1 infected macrophages. Format: cell-based. The note with it: day 12; ≧200 cells/treatment condition. An excerpt: Gluteraldehyde-fixed uninfected and infected cells are postfixed in OsO4, dehydrated through graded ethanol and propylene oxide, embedded in Spurr's epoxy, and thick- and thin-sectioned. Thin sections are placed on copper grids, stained with uranyl acetate and lead citrate, and viewed in a Zeiss EM10 microscope (LEO Electron Microscope; Oberkochen, Germany).

Data set [2] deals with p21 (CDKN1A). Nature of the data set: p21 (CDKN1A) gene expression in HIV-1 infected macrophages (ribonuclease protection assay). To be noted: for human p21 expression: murine-derived antisense sequences tested in human macrophages. In kind it is cell-based, human. From the text:
Total cellular RNA is extracted from adherent control or infected monocytes with the RNeasy minikit (Qiagen, Valencia, Calif.) and analyzed by northern blot (Wahl, S. M. et al. (1998) “MYCOBACTERIUM AVIUM COMPLEX AUGMENTS MACROPHAGE HIV-1 PRODUCTION AND INCREASES CCR5 EXPRESSION. Proc Natl Acad Sci USA 95:12574-12579) using an HIV-full length probe (NIH AIDS Research and Reference Reagent Program) and GAPDH (glyceraldehyde-3-phosphate dehydrogenase) (Gibco BRL, Gaithersburg, Md.). For the RPA 3 μg of RNA is evaluated using the hStress tRiboquant Multi-Probe RPA system (BD Pharmingen, San Diego, Calif.) and densities are normalized to the GAPDH gene using ImageQuant (Molecular Dynamics, Sunnyvale, Calif.)

In data set [3] the test system is p21 (CDKN1A). Kind of data set: p21 protein levels in macrophages. Format: cell-based, human. The note with it: concomitant with reducing HIV infection. The protocol: Uninfected and HIV-1 infected macrophages that have been cultured for twelve days are washed twice with PBS, fixed with 2% paraformaldehyde in PBS, washed and incubated in 100 mM glycine in PBS for 20 min, followed by 0.5% Triton-X-100 for 10 min and rinsed with PBS. Cells are then labeled with rabbit anti-p21 antibody at 5 μg/ml (Santa Cruz Biotechnology, Santa Cruz, Calif.) in PBS containing 5% donkey serum (Jackson ImmunoResearch Laboratories, Inc., West Grove, Pa.) for 1 hr, washed extensively, then incubated with Texas-Red conjugated secondary antibody at 3 μg/ml at room temperature (Molecular Probes, Eugene, Oreg.). Non-specific background is determined using an irrelevant rabbit isotype control antibody and secondary antibody alone at the same concentrations above. Images are captured using a Leica TCS-4D confocal microscope system with a Kr—Ar laser on a DMR upright microscope using a 40×, 1.0 numerical aperture objective. Fluorescence intensity analysis is performed using confocal microscopy and Metamorph analysis (Universal Imaging, Downington, Pa.). […]

Data set [4] relates to HIV-1. To be noted: for viral replication / HIV-1 growth as determined by p24 levels: oligonucleotide 50 nM, after HIV-1 infection and at refeeding, day 12, vs HIV control without oligo.
Procedure: Monocytes are plated in 6 well plates (Corning Costar Corporation, Cambridge, Mass.), at 6×10^6 cells/well or in Lab-Tek chamber slides (Naperville, Ill.) at 1.5×10^6/chamber in Dulbecco's modified Eagle's medium (DMEM) with 2 mM L-glutamine and 10 μg/ml gentamicin (BioWhittaker) or in other suitable vessels. After adherence (4-6 hr at 37° C. and 5% CO2), 10% human AB-serum (Sigma, St. Louis, Mo.) is added to the culture medium. Cells are cultured 5-10 days to allow differentiation into macrophages before being infected with HIV-1BaL TCID50=1000-5000 (Advanced Biotechnologies Inc., Columbia, Md.) or other M tropic (R5) virus for 90 minutes at 37° C. The levels of endotoxin are below the limit of detection in virus preparations. Unbound virus is removed by washing the cells with media and refeeding with complete DMEM containing 10% human serum. Control populations of adherent macrophages are mock-infected and cultured in parallel. Every 3 to 4 days, half the medium is removed for virus assay and replaced with fresh complete medium for two weeks. Supernatant p24 antigen is assayed using the p24 core profile enzyme-linked immunosorbent assay (ELISA) kit (Perkin-Elmer Life Sciences, Wilmington, Del.). […] Additionally, macrophages are treated with p21 anti-sense phosphorothioate oligonucleotides:
The subject of another data set is macrophages. Kind of data set: Macrophage cell viability / cell number, morphology and ultrastructural analysis. To be noted: for cell viability (cell number, morphology, ultrastructural analysis): infected or uninfected macrophage cultures treated with oligonucleotides.
Another data set deals with CD4 and CCR5. Nature of the data set: Macrophage CD4 and CCR5 expression. In kind it is cell-based, human. The protocol: Macrophages were also treated with p21 siRNA duplexes (5 nM) five days prior to HIV infection and the effect on HIV-growth was determined (% of positive HIV control, no siRNA treatment) (representative experiment, n=3) (FIG. 6B). The percent of HIV-1 infection was determined comparing the p24 levels in untreated vs oligo or siRNA treated macrophages. Cells treated with p21 and negative control siRNA (5 days) were also analyzed by flow cytometry for CD4 and CCR5 cell surface expression (FIG. 6C). Nested PCR was employed in order to detect pro-viral DNA on days 1 and 3 after HIV-1BaL infection in macrophages treated with p21 or control siRNA or negative control si RNA. Control represents uninfected cells (FIG. 6D).

Entries after “also recorded” stand apart in the source; their conditions may differ. Read-outs that look alike come from different tables or passages of the source.

On to “Vpr: HIV-1 Vpr gene product, added to macrophages at 6 μg/ml”, for which, in the data set on p21, the p21 gene transcription entry was “increased” and the p21 protein expression entry is on record as “increased”.
`CC1(C)CC[C@]2(C(=O)O)CC[C@]3(C)[C@H](C(=O)C=C4[C@@]5(C)C=C(C#N)C(=O)C(C)(C)[C@@H]5CC[C@]43C)[C@@H]2C1` [CDDO]: in the data set on HIV-1 [1], the “detectable virions (TEM)” value is listed as “absence or near absence of detectable virions” and the “numbers of infected cells (ultrastructural analysis, TEM)” value is recorded as “dramatically reduced numbers of infected cells”. Besides, the “p21 transcription by ribonuclease protection assay” value in the data set with p21 (CDKN1A) [2] (HIV-1 infected macrophages, day 12 post-infection, mean, n=2) was “reduced p21 transcription”. Also, in the data set on p21 (CDKN1A) [3], the p21 protein levels entry is reported as “variably decrease”. For the same molecule, the “release of the viral protein p24 Ag” value with HIV-1 [4] (added prior to, or at the time of, infection of macrophages with HIV-1, CDDO 0.1 μM) was “dose dependent suppression”. The “levels of detectable virus” value in the data set on HIV-1 [4] (macrophages infected with HIV-1) was “dramatically reduced”. Also, the “viral replication as quantitated by p24 levels” value with HIV-1 [4] (macrophages pre-treated 45 min, then infected with HIV-1BaL, compared with DMSO control and untreated cells, day 10, n=3, P=0.01) was “reduced viral replication”. The “cell viability or cell number” value with macrophages (HIV-1 infected macrophages treated with CDDO or di-CDDO) is on record as “Without reducing cell viability or cell number”.
For “5′-TGGATCCGACATGTCAGA-3′ [SEQ ID NO. 14]”, the figures for the “viral replication / HIV-1 growth as determined by p24 levels” value (“viral replication / HIV-1 growth” below) in the data set with HIV-1 [4] and in the data set with HIV-1 [4] (listed as SEQ ID NO. 13) were “not” and “did not suppress”, respectively.
Take “5′-ACATCACCAGGATTGGACAT-3′ (all phosphorothioate, sugars by position and methylation of C not given here; listed as Mus musculus) [SEQ ID NO. 9]”: the “human p21 expression” value with p21 (CDKN1A) [2] is recorded as “effective in inhibiting”. Moreover, the “effect on macrophage CD4 and CCR5” value with CD4 and CCR5 was “no direct effect”. In addition, in the data set with HIV-1 [4], the “viral replication / HIV-1 growth” value is on record as “reduce viral replication; also recorded: inhibit HIV-1 growth”. Also, the “cell viability (cell number, morphology, ultrastructural analysis)” value in the data set with macrophages is given as “no negative effect”.
For “5′-TGTCAGGCTGGTCTGCCTCC-3′ (all phosphorothioate, sugars by position and methylation of C not given here; listed as Mus musculus) [SEQ ID NO. 7]”, in the data set on p21 (CDKN1A) [2], the “human p21 expression” value is reported as “effective in inhibiting”. Besides, the “effect on macrophage CD4 and CCR5” value in the data set with CD4 and CCR5 is recorded as “no direct effect”. Further, the “viral replication / HIV-1 growth” value in the data set on HIV-1 [4] is reported as “reduce viral replication; also recorded: inhibit HIV-1 growth”. The “cell viability (cell number, morphology, ultrastructural analysis)” value in the data set with macrophages was “no negative effect”.
